According to patent US6503881B2 (priority 1996, dated 2003):
Read-outs that look alike come from different tables or passages of the source.

Key:
[1] = test system: microorganisms with acquired resistance; conditions: for Peptide MIC: pair Mupirocin / MBI 10CN
E. coli strain ML-35 = type: cell-based; conditions: for ONPG hydrolysis diminished: cells pre-incubated with vancomycin, compared to no pre-incubation
bacterial isolates = conditions: S. aureus 19 MRSA
P. aeruginosa = type: cell-based; conditions: P. aeruginosa PA008; pair Ceftriaxone / MBI 11B7CN
MRSA (ATCC #33591) = type: in vivo, S. aureus; conditions: for Percentage of Animals Surviving, Treatment: MRSA ip infection in mice, iv in formulation D, protocol not named in table (1 mg/kg (20 min)); for survival: iv
[2] = test system: S. epidermidis (ATCC #12228); conditions: in vivo, iv
[3] = test system: MSSA (Smith, ATCC #19640); type: in vivo, S. aureus; conditions: formulation D
[4] = type: biochemical
[5] = E. coli ATCC 25922, agarose dilution assay
[6] = E. coli NCTC 10418, agarose dilution assay
[7] = E. faecium ATCC 29212, agarose dilution assay
[8] = P. aeruginosa ATCC 27853, agarose dilution assay
[9] = P. aeruginosa NCTC 10662, agarose dilution assay
[10] = S. aureus MRSA9, agarose dilution assay
[11] = S. aureus MRSA13, agarose dilution assay
[12] = S. aureus MRSA17, agarose dilution assay
[13] = S. marcescens SM82, agarose dilution assay
[14] = S. pneumoniae 406LE8, agarose dilution assay
[15] = S. pneumoniae 60120, agarose dilution assay
[16] = S. pneumoniae ATCC 49619, agarose dilution assay

## I L P W K W P W W P W R R [MBI 10CN]
[1]; S. aureus MRSA 13
  Peptide MIC: 4 µg/mL
[1]; S. aureus MRSA 17, first line
  Peptide MIC: 1 µg/mL
[1]; S. aureus MRSA 17, second line
  Peptide MIC: 2 µg/mL
E. coli strain ML-35
  ONPG hydrolysis diminished: approximately 50%
bacteria; A. calcoaceticus AC001
  MIC: 64 µg/mL
bacteria; E. cloacae ECL007
  MIC: >128 µg/mL
bacteria; [5]
  MIC: 16 µg/mL
bacteria; E. coli ECO001
  MIC: 32 µg/mL
bacteria; [6]
  MIC: 8 µg/mL
bacteria; E. coli SBECO2
  MIC: 16 µg/mL
bacteria; E. faecalis EFS004
  MIC: 8 µg/mL
bacteria; [7]
  MIC: 4 µg/mL
bacteria; E. faecium EFM003
  MIC: 2 µg/mL
bacteria; K. pneumoniae KP002
  MIC: 64 µg/mL
bacteria; [8]
  MIC: >128 µg/mL
bacteria; [9]
  MIC: >128 µg/mL
bacteria; P. aeruginosa PA002
  MIC: >128 µg/mL
bacteria; [10]
  MIC: 1 µg/mL
bacteria; [11]
  MIC: 4 µg/mL
bacteria; [12]
  MIC: 2 µg/mL
bacteria; S. aureus SA003
  MIC: 2 µg/mL
bacteria; S. epidermidis SE010
  MIC: 4 µg/mL
bacteria; S. maltophilia SMA002
  MIC: 64 µg/mL
bacteria; [13]
  MIC: >128 µg/mL
bacteria; S. marcescens SMS004
  MIC: >128 µg/mL
bacteria; [14]
  MIC: >128 µg/mL
bacteria; [15]
  MIC: 64 µg/mL
bacteria; [16]
  MIC: 32 µg/mL

## I L R W P W W P W R R K [MBI 11B7CN]
Bacterial isolates; Piperacillin + peptide
  FIC: 0.50
Bacterial isolates
  Peptide MIC + Piperacillin: 1 µg/mL
  Peptide MIC Alone: 4 µg/mL
  Piperacillin MIC + Peptide: 32 µg/mL
P. aeruginosa
  FIC: 9.50
E. coli strain ML-35; peptide pre-incubated with 150 mM NaCl or 5 mM Mg2+
  membrane permeabilizing activity: significant inhibition

## I L K K W P W W P W R R K [MBI 11CN]
MRSA (ATCC #33591); 6 hours post-infection
  Percentage of Animals Surviving, Treatment: 70%
MRSA (ATCC #33591); 10 hours post-infection
  Percentage of Animals Surviving, Treatment: 30%
MRSA (ATCC #33591); 1 mg/kg (20 min) protocol, injections 5 minutes apart
  survival: delayed the death of the mice to a significant extent
MRSA (ATCC #33591); 5 mg/kg and 1 mg/kg (2 hr) protocols, injections 1 hour apart
  survival: no improvement in survivability over the negative control
[1]; peptide + Tobramycin, S. maltophilia SMA030
  FIC: 9.27
[2]
  survival of mice: prolongs the survival of the mice
[3]; ip 35.7 mg/kg, 60 minutes post-infection, 8 days
  survival (mice rescued): 100%
[3]; ip below 35.7 mg/kg
  activity at lower dose levels: little or no activity
E. coli strain ML-35
  ONPG hydrolysis diminished: approximately 50%
[4]
  membrane permeabilizing activity (ANTS/DPX dye release): virtually abolishes membrane permeabilizing activity
bacteria; [5]
  MIC: 16 µg/mL
bacteria; [6]
  MIC: 4 µg/mL
bacteria; [7]
  MIC: 8 µg/mL
bacteria; [8]
  MIC: >128 µg/mL
bacteria; [9]
  MIC: >128 µg/mL
bacteria; [10]
  MIC: 2 µg/mL
bacteria; [11]
  MIC: 16 µg/mL
bacteria; [12]
  MIC: 4 µg/mL
bacteria; [13]
  MIC: >128 µg/mL
bacteria; [14]
  MIC: >128 µg/mL
bacteria; [15]
  MIC: >128 µg/mL
bacteria; [16]
  MIC: 64 µg/mL
